Here are results for one molecule from patent US5492821A, “Stabilized polyacrylic saccharide protein conjugates” (Cargill, Inc., priority 1991, dated 1996).

Format in all cases: biochemical
What all share (conditions): 0.05M sodium phosphate buffer at pH 8 containing 10% methanol

The test system of one experiment is trypsin (native). Description: Km and kcat of enzyme, Table 1. The procedure: (§1) The yield of the active enzyme was determined by comparison of the relative activity of the native trypsin and the trypsin-polymer conjugate for N-succinyl-Ala-Ala-Pro-Phe p-nitroanilide as the substrate in 0.05M sodium phosphate buffer at pH 8 containing 10% methanol.
Experiment [1] deals with CPC-trypsin (poly(2-N-methacrylamido-2-deoxy-D-glucose)-trypsin conjugate). Briefly: Km and kcat of enzyme-polymer conjugate, Table 1. The procedure: A protein polymer conjugate of poly(2-N-methacrylamido-2-deoxy-D-glucose) and trypsin was prepared by the reductive amination procedure as shown below: [drawing 23] To 20 mL of a 0.05M sodium borate solution at pH 8 was added 148 mg (3×10^-8 mole) of poly(2-N-methacrylamido-2-deoxy-D-glucose) with 30 mg (1.2×10^-6 mole) of trypsin and 10 mg ([…]) of purified sodium cyanoborohydride. The solution was placed in a shaking water bath at 60 oscillations/min at 35° C. for 48 hours. The progress of the reaction was followed by gel filtration chromatography using 0.05M sodium borate as the eluent on Sephacryl S-200 with a flow rate of 1.5 mL/min. Dialysis of the solution using Spectra Por CE 100K MWCO membrane against 2×250 mL of 0.05M sodium borate at pH 8 for 14 hours gave a 42% yield of active stabilized trypsin-polymer conjugate.
as §1

In the next experiment the target is α-chymotrypsin (native) (Bos taurus, UniProt P00766). Briefly: Km and kcat of enzyme, Table 1. The procedure: as §1
The procedure of EXAMPLE 8 (a) (i) was repeated in every essential detail except that α-chymotrypsin was used instead of trypsin.

SMILES strings stand for the structures. Numbered stars: 1 amine (or outer) side, 2 acyl side, 3 side chain; on linkers, the order of the positions; unused ones are H or OH. Peptide text beside a SMILES is read from it. * marks the point of attachment. pNA = O=[N+]([O-])c1ccc(N*)cc1; Suc = O=C(CCC(=O)[*:2])[*:1]

As for `C[C@H](NC(=O)CCC(=O)O)C(=O)N[C@@H](C)C(=O)N1CCC[C@H]1C(=O)N[C@@H](Cc1ccccc1)C(=O)Nc1ccc([N+](=O)[O-])cc1` [N-succinyl-Ala-Ala-Pro-Phe p-nitroanilide] (Suc-AAPF-pNA), the Km (usually the concentration of substrate that gives half-maximal velocity) in the experiment with trypsin (native) amounted to 760 µM; in experiment [1], 890 µM; on α-chymotrypsin (native), 40 µM. The kcat (usually the maximal rate divided by the concentration of active sites) in the experiment with trypsin (native) was 0.9 s⁻¹; in experiment [1] it was 1.2 s⁻¹; at α-chymotrypsin (native), 33 s⁻¹.
